Test results reported in patent publication US5807535A, “Metal complexes of hydroxyaryl containing aminocarboxylic acid chelating agents” (Australian Nuclear Science & Technology Organisation, priority 1992, dated 1998).

Legend:
[1] = Biodistribution of Copper-67 complex of (5); format: in vivo, Balb/c mice; details: for biodistribution L. Int. / biodistribution S. Int. / biodistribution blood / biodistribution bone / biodistribution brain / biodistribution heart / biodistribution kidney / biodistribution liver / biodistribution lung / biodistribution muscle / biodistribution pancreas / biodistribution skin / biodistribution spleen / biodistribution stomach / biodistribution tail / biodistribution urine: 67Cu, mice
Procedure: A typical procedure involved the dissolving Cu-67 20 μl of original stock in an acetate buffer (0.2 M; pH 4.5) to a total volume of 500 μl. To this solution was added 500 μl of the ligand (20 mg/ml) solution in acetate buffer. The mixture was then left to react at 37° C. for 20 minutes. ITLC confirmed the labelling was greater than >95%.
The biodistribution of the copper-67 complex of ligand (5) was evaluated in balb/c mice (5 animals per time point) at 1, 3, 5, 10, 30 minute time intervals.

[2] = Effect of pH on complexation of 99mTc with ligand (5); format: physicochemical
Procedure: Radiolabelling with ^99m Tc was investigated over a range of pHs (3.0-10.0) (described in Table B). To ligand (5) (1.0 ml:1 mg/ml) dissolved in appropriate buffer was added an excess of stannous chloride (20 μl:2 mg/ml) in 0.1 N HCl. To this mixture is added an appropriate activity of ^99m TcO4 (20 μl) eluted from a technetium generator.
All reactions were carried out at room temperature.
Percent complexation was monitored by ITLC-SG using two solvent systems. […]

[3] = Cu-67, over the 30 minute period

For Nc1ccc(O)c(NC(=O)CN(CCN(CC(=O)O)CC(=O)Nc2cc(N)ccc2O)CC(=O)O)c1 [Compound 5], the “biodistribution L. Int.” value ([1]; 1 min) was 0.35 % Injected dose, the “biodistribution S. Int.” value ([1]; 1 min) was 0.50 % Injected dose and the biodistribution blood ([1]; 1 min) was 5.86 % Injected dose. It also gave a biodistribution bone ([1]; 1 min) of 5.46 % Injected dose, a biodistribution brain ([1]; 1 min) of 0.23 % Injected dose and a biodistribution heart ([1]; 1 min) of 0.27 % Injected dose. It also gave a biodistribution kidney ([1]; 1 min) of 8.35 % Injected dose, a biodistribution liver ([1]; 1 min) of 5.71 % Injected dose and a biodistribution lung ([1]; 1 min) of 0.85 % Injected dose. The biodistribution muscle ([1]; 1 min) was 13.69 % Injected dose, the biodistribution pancreas ([1]; 1 min) was 0.20 % Injected dose and the biodistribution skin ([1]; 1 min) was 9.61 % Injected dose. It also gave a biodistribution spleen ([1]; 1 min) of 0.18 % Injected dose, a biodistribution stomach ([1]; 1 min) of 0.52 % Injected dose and a biodistribution tail ([1]; 1 min) of 8.27 % Injected dose. The biodistribution urine ([1]; 1 min) was 0.35 % Injected dose, the “biodistribution L. Int.” value ([1]; 3 min) was 0.75 % Injected dose and the “biodistribution S. Int.” value ([1]; 3 min) was 1.10 % Injected dose. It also gave a biodistribution blood ([1]; 3 min) of 4.76 % Injected dose, a biodistribution bone ([1]; 3 min) of 3.35 % Injected dose and a biodistribution brain ([1]; 3 min) of 0.22 % Injected dose. It also gave a biodistribution heart ([1]; 3 min) of 0.28 % Injected dose, a biodistribution kidney ([1]; 3 min) of 5.65 % Injected dose and a biodistribution liver ([1]; 3 min) of 8.48 % Injected dose. It also gave a biodistribution lung ([1]; 3 min) of 1.20 % Injected dose, a biodistribution muscle ([1]; 3 min) of 18.00 % Injected dose and a biodistribution pancreas ([1]; 3 min) of 0.11 % Injected dose. For the same molecule, the biodistribution skin ([1]; 3 min) was 19.21 % Injected dose, the biodistribution spleen ([1]; 3 min) was 0.19 % Injected dose and the biodistribution stomach ([1]; 3 min) was 0.93 % Injected dose. For the same molecule, the biodistribution tail ([1]; 3 min) was 5.19 % Injected dose, the biodistribution urine ([1]; 3 min) was 1.98 % Injected dose and the “biodistribution L. Int.” value ([1]; 5 min) was 0.54 % Injected dose. For the same molecule, the “biodistribution S. Int.” value ([1]; 5 min) was 1.08 % Injected dose, the biodistribution blood ([1]; 5 min) was 4.05 % Injected dose and the biodistribution bone ([1]; 5 min) was 2.74 % Injected dose. For the same molecule, the biodistribution brain ([1]; 5 min) was 0.23 % Injected dose, the biodistribution heart ([1]; 5 min) was 0.19 % Injected dose and the biodistribution kidney ([1]; 5 min) was 4.99 % Injected dose. For the same molecule, the biodistribution liver ([1]; 5 min) was 9.04 % Injected dose, the biodistribution lung ([1]; 5 min) was 1.10 % Injected dose and the biodistribution muscle ([1]; 5 min) was 11.95 % Injected dose. It also gave a biodistribution pancreas ([1]; 5 min) of 0.12 % Injected dose, a biodistribution skin ([1]; 5 min) of 16.23 % Injected dose and a biodistribution spleen ([1]; 5 min) of 0.16 % Injected dose. The biodistribution stomach ([1]; 5 min) was 0.87 % Injected dose, the biodistribution tail ([1]; 5 min) was 5.36 % Injected dose and the biodistribution urine ([1]; 5 min) was 3.72 % Injected dose. For the same molecule, the “biodistribution L. Int.” value ([1]; 10 min) was 0.79 % Injected dose, the “biodistribution S. Int.” value ([1]; 10 min) was 0.90 % Injected dose and the biodistribution blood ([1]; 10 min) was 2.33 % Injected dose. The biodistribution brain ([1]; 10 min) was 0.19 % Injected dose, the biodistribution heart ([1]; 10 min) was 0.18 % Injected dose and the biodistribution kidney ([1]; 10 min) was 4.48 % Injected dose. The biodistribution liver ([1]; 10 min) was 11.79 % Injected dose, the biodistribution lung ([1]; 10 min) was 1.20 % Injected dose and the biodistribution muscle ([1]; 10 min) was 8.38 % Injected dose. The biodistribution pancreas ([1]; 10 min) was 0.34 % Injected dose, the biodistribution skin ([1]; 10 min) was 16.46 % Injected dose and the biodistribution spleen ([1]; 10 min) was 0.16 % Injected dose. The biodistribution stomach ([1]; 10 min) was 0.80 % Injected dose, the biodistribution tail ([1]; 10 min) was 3.45 % Injected dose and the biodistribution urine ([1]; 10 min) was 4.71 % Injected dose. For the same molecule, the “biodistribution L. Int.” value ([1]; 30 min) was 0.31 % Injected dose, the “biodistribution S. Int.” value ([1]; 30 min) was 0.71 % Injected dose and the biodistribution blood ([1]; 30 min) was 2.12 % Injected dose. It also gave a biodistribution bone ([1]; 30 min) of 2.05 % Injected dose, a biodistribution brain ([1]; 30 min) of 0.54 % Injected dose and a biodistribution heart ([1]; 30 min) of 0.20 % Injected dose. For the same molecule, the biodistribution kidney ([1]; 30 min) was 3.38 % Injected dose, the biodistribution liver ([1]; 30 min) was 17.10 % Injected dose and the biodistribution lung ([1]; 30 min) was 1.29 % Injected dose. The biodistribution muscle ([1]; 30 min) was 7.45 % Injected dose, the biodistribution pancreas ([1]; 30 min) was 0.34 % Injected dose and the biodistribution skin ([1]; 30 min) was 14.14 % Injected dose. The biodistribution spleen ([1]; 30 min) was 0.19 % Injected dose, the biodistribution stomach ([1]; 30 min) was 1.22 % Injected dose and the biodistribution tail ([1]; 30 min) was 1.51 % Injected dose. The biodistribution urine ([1]; 30 min) was 1.33 % Injected dose, the “clearance from the kidneys, blood and urine” value [1, 3] was “clears from the kidneys, blood and urine over the 30 minute period” and the “uptake in the liver” value [1, 3] was “active uptake of the complex in the liver”. For the same molecule, the complexation ([2]; 99mTc, pH 10.0) was “poor”, the stability of product ([2]; 99mTc, pH 10.0) was “unstable” and the “stability of final product (stable for upto)” value ([2]; 99mTc, pH range 3.0-9.0) was at most 2 h. The “optimum pH of complexation” value ([2]; 99mTc, room temperature) was 3.0-4.0 pH, the “Percent 99mTc complexed” value ([2]; pH 3, 1 min) was 89% and the “Percent 99mTc complexed” value ([2]; pH 3, 3 min) was 93%. The “Percent 99mTc complexed” value ([2]; pH 3, 5 min) was 90%, the “Percent 99mTc complexed” value ([2]; pH 3, 10 min) was 91% and the “Percent 99mTc complexed” value ([2]; pH 3, 15 min) was 90%. For the same molecule, the “Percent 99mTc complexed” value ([2]; pH 3, 30 min) was 92%, the “Percent 99mTc complexed” value ([2]; pH 3, 1 h) was 92% and the “Percent 99mTc complexed” value ([2]; pH 3, 2 h) was 94%. For the same molecule, the “Percent 99mTc complexed” value ([2]; pH 4, 1 min) was 94%, the “Percent 99mTc complexed” value ([2]; pH 4, 3 min) was 97% and the “Percent 99mTc complexed” value ([2]; pH 4, 5 min) was 92%. For the same molecule, the “Percent 99mTc complexed” value ([2]; pH 4, 10 min) was 94%, the “Percent 99mTc complexed” value ([2]; pH 4, 15 min) was 96% and the “Percent 99mTc complexed” value ([2]; pH 4, 30 min) was 91%. The “Percent 99mTc complexed” value ([2]; pH 4, 1 h) was 100%, the “Percent 99mTc complexed” value ([2]; pH 4, 2 h) was 100% and the “Percent 99mTc complexed” value ([2]; pH 5, 1 min) was 84%. For the same molecule, the “Percent 99mTc complexed” value ([2]; pH 5, 3 min) was 83%, the “Percent 99mTc complexed” value ([2]; pH 5, 5 min) was 91% and the “Percent 99mTc complexed” value ([2]; pH 5, 10 min) was 83%. For the same molecule, the “Percent 99mTc complexed” value ([2]; pH 5, 15 min) was 81%, the “Percent 99mTc complexed” value ([2]; pH 5, 30 min) was 71% and the “Percent 99mTc complexed” value ([2]; pH 5, 1 h) was 85%. The “Percent 99mTc complexed” value ([2]; pH 5, 2 h) was 88%, the “Percent 99mTc complexed” value ([2]; pH 6, 1 min) was 80% and the “Percent 99mTc complexed” value ([2]; pH 6, 3 min) was 80%. For the same molecule, the “Percent 99mTc complexed” value ([2]; pH 6, 5 min) was 83%, the “Percent 99mTc complexed” value ([2]; pH 6, 10 min) was 80% and the “Percent 99mTc complexed” value ([2]; pH 6, 15 min) was 82%. The “Percent 99mTc complexed” value ([2]; pH 6, 30 min) was 90%, the “Percent 99mTc complexed” value ([2]; pH 6, 1 h) was 85% and the “Percent 99mTc complexed” value ([2]; pH 6, 2 h) was 91%. The “Percent 99mTc complexed” value ([2]; pH 7, 1 min) was 73%, the “Percent 99mTc complexed” value ([2]; pH 7, 3 min) was 83% and the “Percent 99mTc complexed” value ([2]; pH 7, 5 min) was 81%. The “Percent 99mTc complexed” value ([2]; pH 7, 10 min) was 74%, the “Percent 99mTc complexed” value ([2]; pH 7, 15 min) was 87% and the “Percent 99mTc complexed” value ([2]; pH 7, 30 min) was 80%. For the same molecule, the “Percent 99mTc complexed” value ([2]; pH 7, 1 h) was 83%, the “Percent 99mTc complexed” value ([2]; pH 7, 2 h) was 52% and the “Percent 99mTc complexed” value ([2]; pH 8, 1 min) was 76%. The “Percent 99mTc complexed” value ([2]; pH 8, 3 min) was 88%, the “Percent 99mTc complexed” value ([2]; pH 8, 5 min) was 81% and the “Percent 99mTc complexed” value ([2]; pH 8, 10 min) was 83%. The “Percent 99mTc complexed” value ([2]; pH 8, 15 min) was 87%, the “Percent 99mTc complexed” value ([2]; pH 8, 30 min) was 85% and the “Percent 99mTc complexed” value ([2]; pH 8, 1 h) was 77%. The “Percent 99mTc complexed” value ([2]; pH 8, 2 h) was 81%, the “Percent 99mTc complexed” value ([2]; pH 9, 1 min) was 90% and the “Percent 99mTc complexed” value ([2]; pH 9, 3 min) was 100%. For the same molecule, the “Percent 99mTc complexed” value ([2]; pH 9, 5 min) was 94%, the “Percent 99mTc complexed” value ([2]; pH 9, 10 min) was 86% and the “Percent 99mTc complexed” value ([2]; pH 9, 15 min) was 100%. For the same molecule, the “Percent 99mTc complexed” value ([2]; pH 9, 30 min) was 83%, the “Percent 99mTc complexed” value ([2]; pH 9, 1 h) was 85% and the “Percent 99mTc complexed” value ([2]; pH 9, 2 h) was 74%. The “Percent 99mTc complexed” value ([2]; pH 10, 1 min) was 15%, the “Percent 99mTc complexed” value ([2]; pH 10, 3 min) was 16% and the “Percent 99mTc complexed” value ([2]; pH 10, 5 min) was 11%. The “Percent 99mTc complexed” value ([2]; pH 10, 10 min) was 13%, the “Percent 99mTc complexed” value ([2]; pH 10, 15 min) was 9% and the “Percent 99mTc complexed” value ([2]; pH 10, 1 h) was 8%. The “Percent 99mTc complexed” value ([2]; pH 10, 2 h) was 8%.
